From US20190218188A1, “NOVEL 5-SUBSTITUTED IMIDAZOLE DERIVATIVES” (Bayer CropScience Aktiengesellschaft, priority 2016, published 2019)

Assay: Log P by HPLC on reversed phase columns (EEC directive 79/831 Annex V.A8)
Type: physicochemical
Conditions: reversed phase HPLC column; method [a]: LC-UV, acidic range, 0.1% formic acid in water and acetonitrile as eluent (linear gradient 10% to 95% acetonitrile)
Protocol: Measurement of Log P values was performed according to EEC directive 79/831 Annex V.A8 by HPLC (High Performance Liquid Chromatography) on reversed phase columns with the following methods: • ^[a] Log P value is determined by measurement of LC-UV, in an acidic range, with 0.1% formic acid in water and acetonitrile as eluent (linear gradient from 10% acetonitrile to 95% acetonitrile). • ^[b] Log P value is determined by measurement of LC-UV, in a neutral range, with 0.001 molar ammonium acetate solution in water and acetonitrile as eluent (linear gradient from 10% acetonitrile to 95% acetonitrile). • ^[c] Log P value is determined by measurement of LC-UV, in an acidic range, with 0.1% phosphoric acid and acetonitrile as eluent (linear gradient from 10% acetonitrile to 95% acetonitrile). If more than one Log P value is available within the same method, all the values are given and separated by “+”. Calibration was done with straight-chain alkan2-ones (with 3 to 16 carbon atoms) with known Log P values (measurement of Log P values using retention times with linear interpolation between successive alkanones).

SMILES | chromatographic logP
N#Cc1cncn1CC(Cl)(Cc1cccc(F)c1F)C1(Cl)CC1 (centres unmarked) [Example I-02, 1-[2-chloro-2-(1-chlorocyclopropyl)-3-(2,3-difluorophenyl)propyl]-1H-imidazole-5-carbonitrile] | 3.25
N#Cc1cncn1CC(F)(Cc1cccc(F)c1F)C1(Cl)CC1 (centres unmarked) [Example I-01, 1-[2-(1-chlorocyclopropyl)-3-(2,3-difluorophenyl)-2-fluorpropyl]-1H-imidazole-5-carbonitrile] | 2.98
